From the NIST ThermoML archive (doi:10.1016/j.jct.2008.01.020)
Numbers after ± are expanded uncertainties.

Assay: mn = molality of the nth substance listed, in mol/kg
Conditions: 101 kPa, Liquid; for apparent molar heat capacity: Flow calorimetry

Q: Which results are given for `Nc1ncnc2c1ncn2[C@@H]1O[C@H](CO)[C@@H](O)[C@H]1O` [β-adenosine] + O?
A: mass density (288.15 K, m1 = 0.01329): 1000.4 ± 0.14 kg/m3; mass density (288.15 K, m1 = 0.01395): 1000.47 ± 0.14 kg/m3; mass density (288.15 K, m1 = 0.01492): 1000.56 ± 0.14 kg/m3; mass density (288.15 K, m1 = 0.01614): 1000.68 ± 0.14 kg/m3; mass density (288.15 K, m1 = 0.01712): 1000.77 ± 0.14 kg/m3; mass density (288.15 K, m1 = 0.01799): 1000.86 ± 0.14 kg/m3; mass density (288.15 K, m1 = 0.01882): 1000.94 ± 0.14 kg/m3; mass density (288.15 K, m1 = 0.01892): 1000.95 ± 0.14 kg/m3; mass density (288.15 K, m1 = 0.01942): 1001 ± 0.14 kg/m3; apparent molar heat capacity (298.15 K, m1 = 0.01599): 483.2 ± 49 J/K/mol; apparent molar heat capacity (298.15 K, m1 = 0.01704): 488 ± 46 J/K/mol; apparent molar heat capacity (298.15 K, m1 = 0.01799): 487.4 ± 44 J/K/mol; apparent molar heat capacity (298.15 K, m1 = 0.01899): 491.7 ± 42 J/K/mol; apparent molar heat capacity (298.15 K, m1 = 0.01941): 486.7 ± 41 J/K/mol; apparent molar heat capacity (298.15 K, m1 = 0.01999): 489.8 ± 40 J/K/mol; apparent molar heat capacity (298.15 K, m1 = 0.02098): 488.4 ± 38 J/K/mol; apparent molar heat capacity (298.15 K, m1 = 0.02171): 489.9 ± 36 J/K/mol; apparent molar heat capacity (298.15 K, m1 = 0.02196): 487.5 ± 36 J/K/mol; mass density (298.15 K, m1 = 0.01501): 998.486 ± 0.14 kg/m3; mass density (298.15 K, m1 = 0.01599): 998.58 ± 0.14 kg/m3; mass density (298.15 K, m1 = 0.01704): 998.686 ± 0.14 kg/m3; mass density (298.15 K, m1 = 0.01799): 998.767 ± 0.14 kg/m3; mass density (298.15 K, m1 = 0.01899): 998.864 ± 0.14 kg/m3; mass density (298.15 K, m1 = 0.01941): 998.902 ± 0.14 kg/m3; mass density (298.15 K, m1 = 0.01999): 998.965 ± 0.14 kg/m3; mass density (298.15 K, m1 = 0.02098): 999.055 ± 0.14 kg/m3; mass density (298.15 K, m1 = 0.02171): 999.129 ± 0.14 kg/m3; mass density (298.15 K, m1 = 0.02196): 999.151 ± 0.14 kg/m3; mass density (303.15 K, m1 = 0.01329): 996.913 ± 0.14 kg/m3; mass density (303.15 K, m1 = 0.01395): 996.975 ± 0.14 kg/m3; mass density (303.15 K, m1 = 0.01501): 997.076 ± 0.14 kg/m3; mass density (303.15 K, m1 = 0.01546): 997.117 ± 0.14 kg/m3; mass density (303.15 K, m1 = 0.01614): 997.185 ± 0.14 kg/m3; mass density (303.15 K, m1 = 0.01712): 997.271 ± 0.14 kg/m3; mass density (303.15 K, m1 = 0.01799): 997.354 ± 0.14 kg/m3; mass density (303.15 K, m1 = 0.01892): 997.445 ± 0.14 kg/m3; mass density (303.15 K, m1 = 0.01903): 997.455 ± 0.14 kg/m3; mass density (303.15 K, m1 = 0.01942): 997.495 ± 0.14 kg/m3; mass density (313.15 K, m1 = 0.01297): 993.43 ± 0.15 kg/m3; mass density (313.15 K, m1 = 0.01346): 993.47 ± 0.15 kg/m3; mass density (313.15 K, m1 = 0.01395): 993.522 ± 0.15 kg/m3; mass density (313.15 K, m1 = 0.01501): 993.616 ± 0.15 kg/m3; mass density (313.15 K, m1 = 0.01598): 993.707 ± 0.15 kg/m3; mass density (313.15 K, m1 = 0.017): 993.802 ± 0.15 kg/m3; mass density (313.15 K, m1 = 0.01799): 993.896 ± 0.15 kg/m3; mass density (313.15 K, m1 = 0.01882): 993.976 ± 0.15 kg/m3; mass density (313.15 K, m1 = 0.01997): 994.077 ± 0.15 kg/m3
